Source: US9572760B2, “Uses of compounds and mixtures from Antrodia cinnamomea mycelia” (Simpson Biotech Co., Ltd., priority 2013, dated 2017)

What was measured:
tyrosinase = molecular target: T1, tyrosinase (Mus musculus, UniProt P11344); assay: Cellular tyrosinase activity assay (L-DOPA oxidation) in B16F10 cells exposed to UV; assay type: cell-based, murine; details: UV alone 52.55±4.36% increase over non-UV control (3.0±0.5 U/mg protein)
T1 construct: endogenous in cells; host or cells: B16F10 murine melanoma cells (ATCC), total cell lysate
T1 sequence (P11344 19-533): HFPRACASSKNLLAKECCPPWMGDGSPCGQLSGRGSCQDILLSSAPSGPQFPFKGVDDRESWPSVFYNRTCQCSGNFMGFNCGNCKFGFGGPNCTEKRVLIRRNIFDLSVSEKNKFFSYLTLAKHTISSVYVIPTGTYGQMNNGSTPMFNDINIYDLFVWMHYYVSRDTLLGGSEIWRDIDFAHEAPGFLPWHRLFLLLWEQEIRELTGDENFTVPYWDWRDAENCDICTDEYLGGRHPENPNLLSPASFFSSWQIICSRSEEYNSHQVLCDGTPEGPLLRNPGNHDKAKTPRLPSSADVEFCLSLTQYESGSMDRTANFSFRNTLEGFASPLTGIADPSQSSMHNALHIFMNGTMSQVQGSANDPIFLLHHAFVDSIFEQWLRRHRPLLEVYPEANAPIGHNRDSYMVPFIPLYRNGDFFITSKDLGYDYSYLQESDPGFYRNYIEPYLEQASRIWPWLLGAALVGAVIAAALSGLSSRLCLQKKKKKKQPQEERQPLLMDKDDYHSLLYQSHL
Source text: (§1) The dermal fibroblast cell line CG1639 was obtained from the BCRC (Bioresource Collection and Research Center) and cultured in Dulbecco's modified Eagle media (DMEM, Gibco by Invitrogen) with 1% antibiotic antimycotic (Gibco by Invitrogen) and 15% fetal bovine serum (Gibco by Invitrogen). The fetal rat skin keratinocyte, FRSK cell line was obtained from the Japan HSRRB (Health Science Research Resources Bank) and cultured in Eagle's minimal essential media (MEM, Gibco by Invitrogen) supplemented with 10% fetal bovine serum (FBS) (Gibco by Invitrogen) and 1% antibiotic antimycotic (Gibco by Invitrogen). B16F10 cells, a murine melanoma cell line, were purchased from American Type Culture Collection (ATCC, Rockville, Md., USA) and was cultured in Eagle's Minimum Essential Medium (MEM; Sigma, St. Louis, Mo.) supplemented with 10% fetal bovine serum (FBS; HyClone Lab. Inc., Logan, Utah), 0.02% antibiotic-antimycotic liquid (penicillin, 10 000 U mL^−1; streptomycin, 10 000 μg mL^−1 and amphotericin B, 25 μg mL^−1; Invitrogen, Carlsbad, Calif.).
(§2) To investigate the induction of melanogenesis and the oxidative stress by direct UV irradiation, melanoma cells and keratocytes were irradiated with 8 J cm^−2 of UVA (FL15BLB, 352 nm, 15 W; Toshiba, Tokyo, Japan) and 10 mJ cm^−2 of UVB (G15T8E, 306 nm, 15 W; Sankyo Denki, Tokyo, Japan) in a HANKS' balanced salt solution (Sigma). The UV intensity was measured by using a Model UVX Digital Radiometer (UVP Inc., Upland, Calif.).
(§3) B16F10 and FRSK cells were exposed to Hepasim compounds A-D by two different concentrations (3 or 10 μM) for 72 hrs prior to UVA irradiation. DMEM was replaced with phosphate buffered saline (PBS) to avoid generation of medium-derived toxic photoproducts prior to UV irradiation. Cells were collected 24 hrs after UVA irradiation and assayed. For preparation of cell lysate, the harvested cells were pelleted by centrifugation and lysed in lysis buffer containing 50 mM Tris-HCl, 10 mM ethylene diaminetetraacetic acid (EDTA), 1% (v/v) Tri-ton X-100, phenylmethylsulfonyl fluoride (PMSF) (100 mg/ml) and pepstatin A (1 mg/ml) in DMSO and leupeptin (1 mg/ml) in H2O, pH 6.8. The cells were centrifuged at 10,000 rpm for 10 min and the total cell lysate was collected and stored at −80° C.
The rate of L-DOPA oxidation was measured to assess cellular tyrosinase activity in B16F10 cells exposed to UV. The assay was performed as below described, 20 mM L-DOPA used as the substrates was added to each lysate in a 96-well plate and absorbance of dopachrome formation was measured spectrophotometrically at 475 nm every 10 min for 1 h at 37° C. by a spectrophotometer. The tyrosinase activity was calculated by comparison to a standard curve using tyrosinase (2034 U/mg) and was expressed as unit/mg protein. The data are expressed as a percentage of the tyrosinase activity (unit/mg protein) of non-irradiated and untreated control cells (100%).

HSC [1] = assay: HSC apoptosis by cell death detection ELISA; assay type: cell-based; details: highest concentration (80 μM), 72 hours
Description: Apoptosis was detected with a sandwich immunoassay system using a cell death detection ELISA kit (Roche Diagnostic Inc.). Roche's Cell Death Detection ELISA kit qualitatively and quantitatively detects the amount of cleaved DNA/histone complexes (nucleosomes) in a given sample using a sandwich-enzyme-immunoassay-based method. The cells (1×10^4 cells/well) were seeded in 100 μl medium in a 96-well plate (Nunc, Denmark) and cultured for 24 h to allow the cells to attach and then treated with three different concentrations (8 μM, 24 μM and 80 μM) of either Compound A, B, C and D for 24 h, 48 h and 72 h and the plates were incubated in 37° C. After incubation, the 96 well plates were centrifuged for 10 min at 200×g and removed supernatant and discard, then added 200 μl of lysis buffer per well using multipipetman and incubated 30 min at room temperature, microplates were centrifuged the lysate at 200×g for 10 min. After the centrifuge, 20 μl of the supernatant was transferred into the streptavidin-coated microplate, then added 80 μl of immunoreagent to each well. The microplate was covered with an adhesive foil and incubated on a shaker under gentle shaking for 2 hour at room temperature. After the incubation period, microplates were washed three times with 250-300 μl incubation buffer and 100 μl ABTS solution was added and incubated for 30 min or until color is sufficient for photometric. ABTS Stop solution was added and absorbance of the samples was measured using ELISA reader at 405 nm, reference wavelength at 490 nm.

B16F10 cells = assay: Melanin content in B16F10 cells after UV irradiation; assay type: cell-based, murine; details: 10 μM for 72 hrs prior to UV irradiation; UV alone 33.80±4.6% increase over non-UV cells (7.4±0.3 μg/mg protein)
Source text: as §1, §2, §3
In order to measure the melanin contents, B16F10 cells were sonicated on ice and the mixture was centrifuged (25 000 g, 10 min, 4° C.). The supernatant was transferred, and pellets were dissolved in 0.85 N KOH at 60° C. for 20 min. Standard melanin (Sigma) was incubated in parallel. Spectrophotometric analysis of melanin content was then performed at an absorbance of 405 nm

HSC [2] = assay: HSC proliferation by BrdU assay; assay type: cell-based; details: highest concentration (80 μM), 72 hours
Description: The Cell Proliferation ELISA, BrdU kit was designed to quantitate cell proliferation bases on the measurement of BrdU incorporation during DNA synthesis in proliferation cells. Briefly, cells (1×10^4 cells/well) were seeded in 100 μl medium in a 96-well plate (Nunc, Denmark) and cultured for 24 h to allow the cells to attach and then treated with three different concentrations ([…]) of either Compound A, B, C and D for 24 h, 48 h and 72 h and the plates were incubated in 37° C. After incubation, the culture medium was labeled with 10 μl/well BrdU (Roche Diagnostic Inc.), and the cells were reincubated for addition 16 h at 37° C. Labeling medium was removed using 10 min centrifuge at 200×g and blow dried. Cells were fixed using 200 μl FixDenat solution and incubated for 30 min at room temperature. Removing the FixDenat solution, 100 μl of anti-BrdU-POD was added and incubated for 90 min at room temperature. After the incubation period, microplates were washed three times with PBS buffer and 100 μl substrate solution was added and incubated for 30 min. Stop solution was added (25 μl of 1 M H2SO4) and absorbance of the samples was measured using ELISA reader at 450 nm.

Row | tyrosinase activity in UV-irradiated B16F10 cells (tyrosinase; 3 μM) [%] | tyrosinase activity in UV-irradiated B16F10 cells (tyrosinase; 10 μM) [%] | SMILES | apoptosis of HSC (cell death detection assay) (HSC [1]) | melanin production in UV-irradiated B16F10 cells (B16F10 cells) [%] | HSC proliferation (BrdU assay) (HSC [2])
1 | 38.5±4.5 | 29.25±2.6 | CC(C)=CCOc1ccc([C@H]2C(=O)N(O)C(=O)[C@@H]2CC(C)C)cc1 (relative stereo) [Compound D, (3R*,4S*)-1-hydroxy-3-isobutyl-4-[4-(3-methyl-2-butenyloxy)phenyl]pyrrolidine-2,5-dione] | same but delayed | 26.32±2.3 | same but delayed
2 | 43.50±3.5 | 26.75±2.3 | CC(C)=CCOc1ccc(C2=C(CC(C)C)C(=O)OC2=O)cc1 [Compound A, 3-isobutyl-4-[4-(3-methyl-2-butenyloxy)phenyl]furan-2,5-dione] | – | 23.25±5.5 | –
